From paper PMC10223284, “Category-Based Toxicokinetic Evaluations of Data-Poor Per- and Polyfluoroalkyl Substances (PFAS) using Gas Chromatography Coupled with Mass Spectrometry” (Toxics, 2023)
“And” between values parts separate entries of the source, which are not always exact repeats. Equal values may be shown once.

Assays:
[1] = Abiotic loss in negative controls of the hepatocyte clearance assay (cell-free media, metabolically inactivated hepatocytes); assay type: in vitro ADME; settings: flag for stability failure in hepatocyte clearance assay controls (1 or Fst = fail, 0 = pass)
Procedure: The hepatic metabolic stability assay measures the loss of a parent compound over time in a substrate-depletion approach. Briefly, hepatocyte suspensions, after a viability assessment, were diluted in complete William’s medium E (containing dexamethasone and cell maintenance cocktail B) prior to addition to 96-well polypropylene plates containing an equal volume of media spiked with the test compound (1 μM assay concentration; assay cell density = 50,000 cells/100 μL) and maintained at 37 °C with shaking. At each time point, relevant plates were crashed with an equal volume of ice-cold acetonitrile, centrifuged, and supernatant transferred to a new plate prior to storage at <−70 °C until quantitative analysis. Controls, run in parallel, included cell-free (i.e., media only) and metabolically inactivated hepatocytes to evaluate abiotic chemical stability in the aqueous media matrix with and without cellular protein. In preliminary runs, these controls were run at T0 and T240 only. If significant instability was noted, the hepatocyte clearance assay was rerun, including cell-free samples at each time point and metabolically inactivated hepatocytes at selected time points.
Negative controls, including media only and metabolically inactivated hepatocyte controls, were included to monitor abiotic loss (i.e., background clearance) during the assay. Where significant compound loss occurred using the analysis described above, background clearance rates were calculated and used to background-adjust hepatic metabolic clearance rates. Where chemicals were cleared prior to the end of the analysis, at 240 min (T240), the corresponding negative control timepoint was used for background subtraction. Any chemicals displaying a 50% or more abiotic loss at T120 were deemed unstable and were excluded from further analyses.

human plasma [2] = assay: Chemical stability in plasma over the UC assay time course (T5hr/T1hr); settings: for PPB_Stab_Fail: flag for stability failure in the plasma protein binding assay (1 = fail, 0 = pass); for Fstable.Med: median fraction stable in plasma, UC assay Level4; for Stability (T5hr/ T1hr), replicates A, B, C: single replicate of one UC run; for % remaining_PPB: chemical remaining in plasma over the PPB assay time course, NS = no significant loss; for Time 1 hr / Time 1 hr, Run-specific Avg: amount measured in plasma sample at 1 hr; for Time 1 hr / Time 5 hr: replicates A, B, C; for Time 1 hr / Time 1 hr, Run-specific Avg / Time 5 hr / Time 5 hr, Run-specific Avg: unit not given; for Time 1 hr, Run-specific Avg / Time 5 hr, Run-specific Avg: run average; for Time 5 hr / Time 5 hr, Run-specific Avg: amount measured in plasma sample at 5 hr
human plasma [3] = assay: Ultracentrifugation (UC) plasma protein binding assay, fraction unbound in plasma (fup); settings: for Mean fu: fraction unbound in human plasma, ultracentrifugation, some values based on eLOQ; for Fup.Med: median fraction unbound in plasma; for Fup.Med / Fup.point: UC assay Level4; for Fup.point: point estimate of fraction unbound in plasma; for Mean Fu: mean fraction unbound over all replicates and runs, UC assay; for Fraction Unbound (fu), replicates A, B, C: single replicate of one UC run (aqueous fraction / Time 5 hr); for Aqueous Fraction / Aqueous Fraction, Run-specific Avg: amount measured in aqueous fraction after ultracentrifugation, unit not given; for Aqueous Fraction: replicates A, B, C; for Aqueous Fraction, Run-specific Avg: run average
in vitro = settings: both, human, plasma
[4] = mean over all UC runs and replicates, human plasma
[5] = average of one UC run (run date in line above)
[6] = mean T5hr/T1hr ratio over all replicates and runs, plasma
[7] = mean T5hr/T1hr ratio in plasma over all replicates/runs

Structure (SMILES)	Hep_Stab_Fail [1]	PPB_Stab_Fail (human plasma [2])	Fstable.Med (human plasma [2])	Mean fu (human plasma [3])	Fup.Med (human plasma [3])	Fup.point (human plasma [3])	Stability (T5hr/ T1hr), Run-specific Avg (human plasma [2]; [5])	Mean Stability (human plasma [2]; [6])	Stability (T5hr/ T1hr), replicates A, B, C (human plasma [2])	% remaining_PPB (human plasma [2]) [%]	Time 1 hr (human plasma [2])	Time 1 hr, Run-specific Avg (human plasma [2])	Time 5 hr (human plasma [2])	Time 5 hr, Run-specific Avg (human plasma [2])	Stability (T5hr/ T1hr), Run-specific Avg (human plasma [2]; average of one UC run)	Mean Stability (human plasma [2]; [7])	Aqueous Fraction (human plasma [3])	Aqueous Fraction, Run-specific Avg (human plasma [3])	also measured
NC(=O)C(F)(F)C(F)(F)C(F)(F)C(F)(F)C(F)(F)C(F)(F)C(F)(F)F [Perfluorooctanamide]	1	0	0.738	0.0282	0.0252	0.0263													Mean Stability (T5hr/T1hr) (human plasma [2]; [4]): 0.838; Stability (T5hr/ T1hr), Run-specific Avg (human plasma [2]; run-specific average): 0.841; Mean Fu (fraction unbound) (human plasma [3]; [4]): 0.028; Fraction Unbound (fu), Run-specific Avg (human plasma [3]; run-specific average): 0.0266
OCC(F)(F)C(F)(F)C(F)(F)C(F)(F)C(F)(F)C(F)F	1	0	0.222	0.0537	0.0526	0.0549	0.870	0.875	0.819 and 1.002 and 0.803										Mean Fu (human plasma [3]; human plasma): 0.054; Fraction Unbound (fu), replicates A, B, C (human plasma [3]): 0.052 and 0.046 and 0.064
FC(F)(F)C(F)(F)C(F)(F)C(F)(F)C(F)(F)C(F)(F)C(F)(F)I [1-Iodopentadecafluoroheptane]	1	1	0.202		0.907					16									
OCC(F)(F)C(F)(F)C(F)(F)C(F)(F)C(F)(F)C(F)(F)F [6:1 Fluorotelomer alcohol]	1	0	0.204		0.0187	0.0386					10923.7 and 9182.55 and 11162.4	10422.90	5789.66 and 11336.8 and 10690.6	8563.21	0.822	0.907	212.981 and 210.941 and 147.734	190.55	Fraction Unbound (fu), Run-specific Avg (human plasma [3]; average of one UC run): 0.0231
C=CC(=O)OCC(F)(F)C(F)(F)C(F)(F)COC(=O)C=C [1H,1H,5H,5H-Perfluoro-1,5-pentanediol diacrylate]	1	1	0.00466		7.62E-09	0.177				0									
FC(F)(F)COC(OCC(F)(F)F)OCC(F)(F)F [tris(Trifluoroethoxy)methane]	1	0	0.362	0.1728	0.132	0.0994	0.660	0.662	0.6799 and 0.6407 and 0.6662	66									Fraction Unbound (fu), Run-specific Avg (human plasma [3]; [5]): 0.17; Mean Fu (human plasma [3]; human plasma): 0.173; Fraction Unbound (fu), replicates A, B, C (human plasma [3]): 0.186 and 0.1626 and 0.1699
FC(F)(F)C(F)(F)C(F)(F)C(F)(F)C(F)(F)C(F)(F)C(F)(F)CCI [1-Iodo-1H,1H,2H,2H-perfluorononane]	Fst	0	0.358	0.1123	0.108	0.112				51.7									
N=C(N)C(F)(F)C(F)(F)C(F)(F)C(F)(F)C(F)(F)C(F)(F)C(F)(F)F [Perfluorooctanamidine]	1	0	0.0291	0.0253	4.95E-09	0.0261	0.890	0.892	0.858 and 0.887 and 0.929	67									
CN(C(=O)C(F)(F)C(F)(F)C(F)(F)F)[Si](C)(C)C [N-Methyl-N-trimethylsilylheptafluorobutyramide]	1	0	0.274	0.5451	0.532	0.545	0.935	0.935	0.978 and 0.906 and 0.921										Fraction Unbound (fu), Run-specific Avg (human plasma [3]; [5]): 0.55; Mean Fu (human plasma [3]; human plasma): 0.545; Fraction Unbound (fu), replicates A, B, C (human plasma [3]): 0.507 and 0.525 and 0.603
OCC(F)(F)C(F)(F)C(F)(F)CO [Hexafluoroamylene]			0.988		0.627	0.675					5856.63 and 5544.86 and 5920.14	5773.88	3672.88 and 3626.61 and 3711.47	3649.75	0.632	0.636	160.563 and 273.771 and 229.145	221.16	fraction unbound (in vitro; Fraction Unbound (fu), Run-specific Avg, average of one UC run): 0.06; fraction unbound (in vitro; Fraction Unbound (fu), individual replicates A, B, C of the UC run named in c8): 0.0437; fraction unbound (in vitro; Mean Fu, mean fraction unbound in human plasma over all UC replicates/runs): 0.06
OCCCC(F)(F)C(F)(F)C(F)(F)C(F)(F)C(F)(F)C(F)(F)C(F)(F)F [7:3 Fluorotelomer alcohol]	1	0		0.0230															
OCC(F)(F)C(F)(F)C(F)(F)C(F)(F)C(F)(F)C(F)(F)C(F)(F)C(F)(F)C(F)(F)C(F)(F)C(F)(F)F [11:1 Fluorotelomer alcohol]	1	0	0.341	0.0570	0.0578	0.0621				100	16624.1 and 16003.4 and 18170.7	16932.71	8697.13 and 19831.5 and 16897.3	14264.32	0.842	0.909	595.593 and 1494.34 and 453.605	847.84	Fraction Unbound (fu), Run-specific Avg (human plasma [3]; average of one UC run): 0.0569
OCCC(F)(F)C(F)(F)C(F)(F)C(F)(F)C(F)(F)C(F)(F)F [6:2 Fluorotelomer alcohol]	1	0	0.205		0.232	0.152				100	10242.5 and 11181.9 and 10094.7	10506.38	8145.88 and 10628.7 and 9411.26	9387.28	0.893	0.895	219.897 and 3328.34 and 176.612	1241.62	Fraction Unbound (fu), Run-specific Avg (human plasma [3]; average of one UC run): 0.0229
FC(F)(F)C(F)(F)C(F)(F)C(F)(F)CCI [1H,1H,2H,2H-Perfluorohexyl iodide]	1	0	0.99	0.0980	0.0824	0.0905	0.871	0.928	1.126 and 0.894 and 0.765		4814.29 and 5234.67 and 5102.52	5050.49	2541.5 and 2572.68 and 2719.11	2557.09	0.506	0.517	429.404 and 197.254 and 248.159	291.61	Fraction Unbound (fu), Run-specific Avg (human plasma [3]; [5]): 0.10; Fraction Unbound (fu), replicates A, B, C (human plasma [3]): 0.08012 and 0.1098 and 0.1042
